Residues, ends and D or L forms follow the SMILES beside them. ξ: configuration not given here. *: point of attachment. Lipoyl(6ξ) = O=C(CCCCC1CCSS1)*
Experiments:
[1] = infusion, 740 to 900 mg/m^2 of body surface area; cited from earlier work
[2] = mouse, in vivo, iv

In the case of `NCCCNCCSP(=O)(O)O` [Amifostin], the “arterial hypotension as severe side effect” value [1] is given as “In over half of patients”.

For `NCCCCC(NC(=O)C(CCC(=O)O)NC(=O)C(CCC(=O)O)NC(=O)C(CCC(=O)O)NC(=O)C(CCCCNC(=O)CCCCC1CCSS1)NC(=O)C(CCCCN)NC(=O)C(CCCCN)NC(=O)C(CCC(=O)O)NC(=O)C(CCC(=O)O)NC(=O)C(CCC(=O)O)NC(=O)C(CCCCNC(=O)CCCCC1CCSS1)NC(=O)C(CCCCN)NC(=O)C(CCCCN)NC(=O)C(CCC(=O)O)NC(=O)C(CCC(=O)O)NC(=O)C(CCC(=O)O)NC(=O)C(CCCCNC(=O)CCCCC1CCSS1)NC(=O)C(CCCCN)NC(=O)C(CCCCN)NC(=O)C(N)Cc1ccc(O)cc1)C(N)=O` (centres unmarked) [y(KKKe(lipoic acid)EEE)3K] (H-YKKK(Lipoyl(6ξ))EEEKKK(Lipoyl(6ξ))EEEKKK(Lipoyl(6ξ))EEEK-NH2; configuration not given here), the kidney specificity [2] was “high kidney specificity”.
